For experiment [1], the target named is T1, LVDr + M250V HBV polymerase (Hepatitis B virus genotype D subtype ayw, UniProt P03156, L515M/M539V/M585V).
T1 construct: intracellular HBV nucleocapsids were isolated from HBV transfected HepG2 cells and used in endogenous polymerase assays; expressed in transfected cells; host or cells: HepG2 cells transfected with a mutated HBV expression plasmid
The experiment in a line: In vitro HBV polymerase assay (endogenous polymerase assay with nucleocapsids). Format: biochemical. The note with it: for IC50: In vitro polymerase. From the text:
(§1) To provide the data in Tables 1 & 2, intracellular HBV nucleocapsids were isolated from HBV transfected HepG2 cells and used in endogenous polymerase assays (EPA), exactly as previously described in detail. Essentially, clarified, detergent and nuclease-treated HBV-transfected cell lysates were centrifugally sedimented through a 25% wt/vol sucrose cushion. Sedimented nucleocapsids were used in polymerase reactions with [33P]-labeled dNTPs and TCA-precipitable radioactivity was used as an indication of the HBV polymerase activity, as described.
(§2) In order to increase the activity of the EPA reactions, we used nucleocapsids from cells treated with phosphonoformic acid (foscarnet, PFA; Sigma) during culture. […] PFA inhibits synthesis of all HBV DNA forms and both strands of HBV DNA, but not priming, and has a cell culture EC50 of approximately 5 mM for HBV [48].
(§3) The HBV polymerase dNTP Km values were determined from similar assays where the concentration of dNTP was serially diluted from 1000 nM to 0.3 nM. All other dNTPs were used at a fixed concentration equal to the highest test dNTP concentration with one-tenth of the TTP in the form of [α^33P] TTP (3000 Ci/mmol; PerkinElmer, Boston, MA). The apparent Km values were obtained from Lineweaver-Burke plots of the data generated by GraphPad PRISM™ software version 3.0 (San Diego, CA). The Ki values were calculated using the Cheng-Prusoff equation: Ki = IC50/(1+[S]/Km). The enzyme concentration within HBV nucleocapsid preparations was found by determining the level of covalently-linked HBV DNA using quantitative real-time PCR [9] and converting to genome equivalents [1 pg double stranded HBV DNA = 3×10^5 genome equivalents [34]]. The primers were positioned near the 5′ end of minus strand DNA in an attempt to measure all enzymatically active molecules.

In experiment [2] the target is T2, LVDr + S202G HBV polymerase (Hepatitis B virus genotype D subtype ayw, UniProt P03156, L515M/M539V/S537G).
T2 construct: intracellular HBV nucleocapsids were isolated from HBV transfected HepG2 cells and used in endogenous polymerase assays; expressed in transfected cells; host or cells: HepG2 cells transfected with a mutated HBV expression plasmid
The description is as above. Type of experiment: biochemical. The note with it: for IC50: In vitro polymerase.
Description: as §1, §2, §3

For experiment [3], the target named is T3, LVDr + T184G + S202I HBV polymerase (Hepatitis B virus genotype D subtype ayw, UniProt P03156, L515M/M539V/S537I/T519G).
T3 construct: intracellular HBV nucleocapsids were isolated from HBV transfected HepG2 cells and used in endogenous polymerase assays; expressed in transfected cells; host or cells: HepG2 cells transfected with an HBV expression plasmid
The experiment is described as above. Type of experiment: biochemical. The note with it: for IC50: In vitro polymerase.
Description: as §1, §2, §3

Experiment [4] addresses T4, LVDr + T184L HBV polymerase (Hepatitis B virus genotype D subtype ayw, UniProt P03156, L515M/M539V/T519L).
T4 construct: intracellular HBV nucleocapsids were isolated from HBV transfected HepG2 cells and used in endogenous polymerase assays; expressed in transfected cells; host or cells: HepG2 cells transfected with a mutated HBV expression plasmid
The description is as above. Format: biochemical.
Description: as §1, §2, §3

Experiment [5] addresses T5, LVDr L180M + M204V HBV polymerase (Hepatitis B virus genotype D subtype ayw, UniProt P03156, L515M/M539V).
T5 construct: intracellular HBV nucleocapsids were isolated from HBV transfected HepG2 cells and used in endogenous polymerase assays; expressed in transfected cells; host or cells: HepG2 cells transfected with a mutated HBV expression plasmid
Described as above. Type of experiment: biochemical. The note with it: for IC50: In vitro polymerase, LVDr L180M + M204V.
Description: as §1, §2, §3

In the next experiment the target is T6, Wildtype HBV polymerase (Hepatitis B virus genotype D subtype ayw, UniProt P03156).
T6 construct: intracellular HBV nucleocapsids were isolated from HBV transfected HepG2 cells and used in endogenous polymerase assays; expressed in transfected cells; host or cells: HepG2 cells transfected with pCMV-HBV
The experiment is described as above. Format: biochemical.
Description: as §1, §2, §3

The target in experiment [6] is ETVr HBV polymerases (ETVr signature substitutions in a LVDr background). The experiment in a line: In vitro HBV polymerase assay, ETVr enzymes as a group. Type of experiment: biochemical, hepatitis B virus.
Description: as §1, §2, §3

The subject of a further experiment is Wildtype HBV. Nature of the experiment: HBV cell culture susceptibility (HBV-transfected HepG2 cells). Format: cell-based. As to conditions: Hepatitis B virus, wildtype HBV in culture, read-out: LVD EC50. The protocol: (§4) HepG2 human hepatoma cells (American Type Culture Collection) were maintained as described. The laboratory clone of HBV was the genotype D ayw serotype clone kindly provided by Dr. Steven Goff in the plasmid pCMV-HBV [41]. Plasmids expressing HBV RT with resistance substitutions were prepared using QuikChange® site-directed mutagenesis (Stratagene, LaJolla, CA).
(§5) HepG2 cell culture susceptibility assays were performed in cells transfected with HBV expression plasmids and cultured in the presence of a titration of antiviral compounds, as described in detail elsewhere. The levels of replicated, released HBV virions was measured at day five through immunocapture of detergent released nucleocapsids with anti-HBV core Ab and quantification of encapsidated HBV DNA [5]. Data were plotted as percent inhibition and EC50 values calculated as the drug concentration where 50% inhibition of extracellular HBV occurred.

The subject of experiment [7] is singly M250V substituted HBV. The description is as above. Format: cell-based, hepatitis B virus.
Description: The M250V substituted HBV RT in the absence of LVDr changes was constructed and tested for susceptibility to LVD, an obligate chain terminator which should not be impacted by the mechanism that could potentially affect ETV chain termination.
as §4, §5

A further experiment deals with HBV. The arrangement: method as in PMID 7601429. As to conditions: read-out: cell culture EC50; cited from earlier work.
Experiment [8] has as its system HBV clones with ETVr signature substitutions in a LVDr background. The note with it: cited from earlier work.
Where [9] appears, read: fold change from wildtype value, LVDr + M250V.
[10] abbreviates: fold change from wildtype value, LVDr + S202G.
The mark [11] stands for this setting: fold change from wildtype value, LVDr + T184G + S202I.
[12] abbreviates: fold change from wildtype value, LVDr + T184L.
[13] abbreviates: fold change from wildtype value, LVDr M204V+L180M.
[14] abbreviates: fold change from wildtype value, Wildtype (WT).

SMILES strings stand for the structures. Several values for one entry are separate records, joined by “and”; a condition that tells them apart may be missing. Identical values can stand only once. Like-named read-outs stand apart in the source and are kept apart here.

T1 sequence (P03156 whole entry L515M/M539V/M585V): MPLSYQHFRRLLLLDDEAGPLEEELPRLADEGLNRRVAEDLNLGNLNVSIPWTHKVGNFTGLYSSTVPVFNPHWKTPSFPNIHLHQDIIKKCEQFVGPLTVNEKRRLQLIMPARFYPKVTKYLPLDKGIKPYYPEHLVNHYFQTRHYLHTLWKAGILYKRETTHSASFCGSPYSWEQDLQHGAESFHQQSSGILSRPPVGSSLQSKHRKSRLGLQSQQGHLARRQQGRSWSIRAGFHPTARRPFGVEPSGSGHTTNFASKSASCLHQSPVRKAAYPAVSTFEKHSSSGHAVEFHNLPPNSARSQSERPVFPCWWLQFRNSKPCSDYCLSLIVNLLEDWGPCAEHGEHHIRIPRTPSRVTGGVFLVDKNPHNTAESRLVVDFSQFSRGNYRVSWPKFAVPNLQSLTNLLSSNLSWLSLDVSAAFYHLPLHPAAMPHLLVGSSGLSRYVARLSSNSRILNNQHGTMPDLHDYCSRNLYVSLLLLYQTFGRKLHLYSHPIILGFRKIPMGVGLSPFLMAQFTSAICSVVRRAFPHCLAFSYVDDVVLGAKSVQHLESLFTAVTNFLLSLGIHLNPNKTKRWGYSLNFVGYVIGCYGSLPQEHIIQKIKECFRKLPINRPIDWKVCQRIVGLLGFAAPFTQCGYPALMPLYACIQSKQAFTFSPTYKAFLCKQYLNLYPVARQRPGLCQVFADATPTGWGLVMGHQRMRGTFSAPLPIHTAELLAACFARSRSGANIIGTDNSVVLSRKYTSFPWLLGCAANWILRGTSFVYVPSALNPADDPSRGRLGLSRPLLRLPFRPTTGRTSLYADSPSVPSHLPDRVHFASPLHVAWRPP
T4 sequence (P03156 whole entry L515M/T519L/M539V): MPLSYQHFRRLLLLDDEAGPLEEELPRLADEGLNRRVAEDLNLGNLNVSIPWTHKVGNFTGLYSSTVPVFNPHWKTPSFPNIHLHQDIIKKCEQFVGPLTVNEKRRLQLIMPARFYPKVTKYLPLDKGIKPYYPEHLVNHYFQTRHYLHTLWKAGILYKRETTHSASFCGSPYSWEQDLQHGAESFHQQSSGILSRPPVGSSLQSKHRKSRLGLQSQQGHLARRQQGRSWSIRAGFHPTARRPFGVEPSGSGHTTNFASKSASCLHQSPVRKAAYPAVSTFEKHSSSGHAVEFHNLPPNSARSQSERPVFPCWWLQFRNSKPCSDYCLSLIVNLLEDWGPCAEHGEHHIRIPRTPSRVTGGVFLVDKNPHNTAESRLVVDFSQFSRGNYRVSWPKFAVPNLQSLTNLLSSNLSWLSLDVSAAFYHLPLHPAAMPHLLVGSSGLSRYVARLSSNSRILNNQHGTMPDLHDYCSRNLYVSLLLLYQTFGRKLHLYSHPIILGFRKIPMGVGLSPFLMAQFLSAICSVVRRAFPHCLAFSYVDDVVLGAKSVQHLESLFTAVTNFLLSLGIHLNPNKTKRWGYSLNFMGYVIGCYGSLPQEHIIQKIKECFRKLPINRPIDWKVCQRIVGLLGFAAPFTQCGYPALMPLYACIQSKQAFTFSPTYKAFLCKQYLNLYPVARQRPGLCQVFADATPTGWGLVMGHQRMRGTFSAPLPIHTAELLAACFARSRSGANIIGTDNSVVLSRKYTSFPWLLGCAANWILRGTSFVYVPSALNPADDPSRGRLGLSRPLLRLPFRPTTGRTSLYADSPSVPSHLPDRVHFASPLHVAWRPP
T6 sequence (P03156 whole entry): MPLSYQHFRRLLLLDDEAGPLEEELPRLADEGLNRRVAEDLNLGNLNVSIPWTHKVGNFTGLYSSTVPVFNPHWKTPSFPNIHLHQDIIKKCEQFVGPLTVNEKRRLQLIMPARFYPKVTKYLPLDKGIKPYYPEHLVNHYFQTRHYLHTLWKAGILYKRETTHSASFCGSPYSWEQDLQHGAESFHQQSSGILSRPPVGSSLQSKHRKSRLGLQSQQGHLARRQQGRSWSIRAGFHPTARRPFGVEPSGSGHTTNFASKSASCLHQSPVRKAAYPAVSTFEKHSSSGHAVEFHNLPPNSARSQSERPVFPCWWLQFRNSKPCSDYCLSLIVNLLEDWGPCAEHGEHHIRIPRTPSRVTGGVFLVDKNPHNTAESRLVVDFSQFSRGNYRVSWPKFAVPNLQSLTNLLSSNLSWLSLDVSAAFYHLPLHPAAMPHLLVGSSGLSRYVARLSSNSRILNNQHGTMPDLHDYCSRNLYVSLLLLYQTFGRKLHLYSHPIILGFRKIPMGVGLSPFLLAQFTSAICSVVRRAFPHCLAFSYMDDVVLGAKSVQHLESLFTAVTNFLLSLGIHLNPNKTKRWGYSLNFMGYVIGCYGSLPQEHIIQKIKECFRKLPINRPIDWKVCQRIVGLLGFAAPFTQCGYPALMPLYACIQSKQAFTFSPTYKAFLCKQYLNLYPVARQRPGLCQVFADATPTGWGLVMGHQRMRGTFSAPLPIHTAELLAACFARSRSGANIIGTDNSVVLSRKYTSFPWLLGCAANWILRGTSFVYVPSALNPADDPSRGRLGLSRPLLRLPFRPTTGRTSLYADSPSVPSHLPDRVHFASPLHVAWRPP
T3 sequence (P03156 whole entry L515M/T519G/S537I/M539V): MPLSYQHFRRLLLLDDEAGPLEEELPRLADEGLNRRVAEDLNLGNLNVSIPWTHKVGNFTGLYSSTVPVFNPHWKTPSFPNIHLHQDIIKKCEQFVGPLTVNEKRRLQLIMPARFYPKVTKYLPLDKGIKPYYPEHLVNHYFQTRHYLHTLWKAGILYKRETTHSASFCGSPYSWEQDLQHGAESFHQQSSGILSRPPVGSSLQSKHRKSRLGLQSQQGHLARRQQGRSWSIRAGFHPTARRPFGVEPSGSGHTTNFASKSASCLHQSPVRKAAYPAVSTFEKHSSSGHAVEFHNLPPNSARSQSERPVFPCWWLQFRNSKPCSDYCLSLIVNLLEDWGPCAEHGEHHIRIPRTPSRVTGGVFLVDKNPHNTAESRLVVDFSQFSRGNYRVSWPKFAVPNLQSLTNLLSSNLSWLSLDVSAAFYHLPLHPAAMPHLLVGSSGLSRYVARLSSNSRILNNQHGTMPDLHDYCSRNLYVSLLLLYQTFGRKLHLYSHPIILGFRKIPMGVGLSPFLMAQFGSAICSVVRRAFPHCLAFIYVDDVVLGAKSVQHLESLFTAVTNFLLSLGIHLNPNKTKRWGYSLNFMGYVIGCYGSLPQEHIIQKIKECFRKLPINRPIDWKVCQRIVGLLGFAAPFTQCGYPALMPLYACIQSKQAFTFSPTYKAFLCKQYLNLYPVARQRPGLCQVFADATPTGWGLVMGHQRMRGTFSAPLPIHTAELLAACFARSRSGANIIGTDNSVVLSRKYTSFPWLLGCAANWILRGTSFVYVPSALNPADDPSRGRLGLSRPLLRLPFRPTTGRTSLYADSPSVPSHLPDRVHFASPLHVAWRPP
T5 sequence (P03156 whole entry L515M/M539V): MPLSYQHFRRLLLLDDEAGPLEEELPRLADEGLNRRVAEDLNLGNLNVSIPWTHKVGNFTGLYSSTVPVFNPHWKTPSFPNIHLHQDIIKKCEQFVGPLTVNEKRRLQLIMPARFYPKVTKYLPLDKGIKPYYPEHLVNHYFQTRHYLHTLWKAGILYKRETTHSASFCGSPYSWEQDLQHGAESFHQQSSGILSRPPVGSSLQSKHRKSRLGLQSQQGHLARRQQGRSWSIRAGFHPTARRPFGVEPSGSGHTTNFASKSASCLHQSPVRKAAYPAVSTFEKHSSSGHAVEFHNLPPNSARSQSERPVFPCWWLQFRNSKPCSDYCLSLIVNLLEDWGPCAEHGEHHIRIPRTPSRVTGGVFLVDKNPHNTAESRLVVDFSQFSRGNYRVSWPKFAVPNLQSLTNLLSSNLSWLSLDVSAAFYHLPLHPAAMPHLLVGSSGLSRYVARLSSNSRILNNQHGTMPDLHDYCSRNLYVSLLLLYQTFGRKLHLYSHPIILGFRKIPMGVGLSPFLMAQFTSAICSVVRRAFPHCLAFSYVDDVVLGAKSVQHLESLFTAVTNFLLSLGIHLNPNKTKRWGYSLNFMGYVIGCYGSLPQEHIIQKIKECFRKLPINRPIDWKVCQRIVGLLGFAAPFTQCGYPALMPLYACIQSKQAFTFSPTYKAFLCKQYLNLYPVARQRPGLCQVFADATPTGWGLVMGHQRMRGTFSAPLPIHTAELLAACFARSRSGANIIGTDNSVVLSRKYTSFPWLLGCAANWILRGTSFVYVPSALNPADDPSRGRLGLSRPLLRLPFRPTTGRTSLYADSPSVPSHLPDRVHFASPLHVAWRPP
T2 sequence (P03156 whole entry L515M/S537G/M539V): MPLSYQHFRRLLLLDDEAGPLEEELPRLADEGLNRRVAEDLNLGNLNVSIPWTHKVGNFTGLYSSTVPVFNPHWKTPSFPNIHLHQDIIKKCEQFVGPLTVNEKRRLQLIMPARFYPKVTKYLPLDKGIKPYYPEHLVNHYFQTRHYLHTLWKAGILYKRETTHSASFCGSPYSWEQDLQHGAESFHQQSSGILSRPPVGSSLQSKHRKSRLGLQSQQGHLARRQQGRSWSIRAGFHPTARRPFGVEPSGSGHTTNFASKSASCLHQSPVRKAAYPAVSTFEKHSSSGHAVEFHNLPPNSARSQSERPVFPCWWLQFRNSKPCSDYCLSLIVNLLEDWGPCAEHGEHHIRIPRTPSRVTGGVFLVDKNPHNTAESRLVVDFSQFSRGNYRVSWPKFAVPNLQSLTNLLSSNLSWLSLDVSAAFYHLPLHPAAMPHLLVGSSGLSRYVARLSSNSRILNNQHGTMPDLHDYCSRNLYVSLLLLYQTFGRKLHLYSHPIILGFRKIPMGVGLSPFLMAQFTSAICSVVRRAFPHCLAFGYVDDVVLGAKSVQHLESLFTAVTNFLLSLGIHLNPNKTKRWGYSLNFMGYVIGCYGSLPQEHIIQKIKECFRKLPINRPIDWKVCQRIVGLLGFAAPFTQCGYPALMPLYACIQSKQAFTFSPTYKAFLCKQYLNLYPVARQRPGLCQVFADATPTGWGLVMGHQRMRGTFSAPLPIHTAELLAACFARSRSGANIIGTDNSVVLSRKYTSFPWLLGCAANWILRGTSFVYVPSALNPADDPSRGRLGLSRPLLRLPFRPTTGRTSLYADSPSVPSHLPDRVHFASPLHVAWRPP

Regarding `C=C1[C@H](COP(=O)(O)OP(=O)(O)OP(=O)(O)O)[C@@H](O)C[C@@H]1n1cnc2c(=O)[nH]c(N)nc21` [ETV-TP, ETV-triphosphate], the Ki/Km stood at 52.7 in [1] (ETV-TP Ki / dGTP Km ratio, LVDr + M250V); 69.9 in experiment [2] (ETV-TP Ki / dGTP Km ratio, LVDr + S202G); 221.6 in experiment [3] (ETV-TP Ki / dGTP Km ratio, LVDr + T184G + S202I); 118.2 in [4] (ETV-TP Ki / dGTP Km ratio, LVDr + T184L); 3.5 in [5] (ETV-TP Ki / dGTP Km ratio, LVDr M204V+L180M). Moreover, the IC50 in experiment [1] (LVDr + M250V, read-out: ETV-TP IC50, Average ± SD (Range)) is 0.229 ± 0.0495 µM; in experiment [2] (LVDr + S202G, read-out: ETV-TP IC50, Average ± SD (Range)) it was 0.258 ± 0.0255 µM; in experiment [3] (LVDr + T184G + S202I, read-out: ETV-TP IC50, Average ± SD (Range)) it was 0.636 ± 0.019 µM; in [4] (In vitro polymerase, LVDr + T184L, read-out: ETV-TP IC50, Average ± SD (Range)), 0.373 ± 0.143 µM; in experiment [5] (read-out: ETV-TP IC50, Average ± SD (Range)), 0.0271 ± 0.0056 µM; on Wildtype HBV polymerase (In vitro polymerase, Wildtype, read-out: ETV-TP IC50, Average ± SD (Range)), 0.0005 ± 0.0001 µM. The Ki in experiment [1] (calculated with Cheng-Prusoff equation, LVDr + M250V polymerase, read-out: Ki (ETV-TP)) was 0.121 µM; in experiment [2] (calculated with Cheng-Prusoff equation, LVDr + S202G polymerase, read-out: Ki (ETV-TP)) it was 0.147 µM; in [3] (calculated with Cheng-Prusoff equation, LVDr + T184G + S202I polymerase, read-out: Ki (ETV-TP)), 0.155 µM; in [4] (calculated with Cheng-Prusoff equation, LVDr + T184L polymerase, read-out: Ki (ETV-TP)), 0.225 µM; in experiment [5] (calculated with Cheng-Prusoff equation, LVDr M204V+L180M polymerase, read-out: Ki (ETV-TP)), 0.0123 µM; on Wildtype HBV polymerase (calculated with Cheng-Prusoff equation, Wildtype (WT) polymerase, read-out: Ki (ETV-TP)) it was 0.0004 µM. Further, the “Ki (Fold WT)” value in experiment [1] (setting [9]) was 303.0 fold; in experiment [2] (setting [10]), 366.8 fold; in experiment [3] (setting [11]), 387.8 fold; in experiment [4] (setting [12]) it was 561.3 fold; in experiment [5] (setting [13]), 30 fold and 30.8 fold; on Wildtype HBV polymerase (setting [14]), 1 fold. The “Ki/Km (Fold WT)” value worked out at 658.8 fold in experiment [1] (setting [9]); 873.8 fold in experiment [2] (setting [10]); 2770.0 fold in experiment [3] (setting [11]); 1477.5 fold in experiment [4] (setting [12]); 43.8 fold in [5] (setting [13]); 1 fold at Wildtype HBV polymerase (setting [14]). For the same molecule, the “Ki/dGTP Km ratio, change from the wildtype” value in experiment [6] (ETVr enzymes) is “more than 600 fold”. For the same molecule, the “level of ETVr in vitro” value in experiment [6] (ETVr signature substitutions in a LVDr background, in vitro polymerase) is given as above 400 fold.
Turning to `Nc1ccn([C@@H]2CS[C@H](CO)O2)c(=O)n1` [LVD, lamivudine], the concentration giving a half-maximal response (EC50) in the experiment on Wildtype HBV was 0.794 µM; in [7] (Hepatitis B virus, HepG2, M250V HBV (no LVDr changes) in culture, read-out: LVD EC50), 0.116 µM. Moreover, the “hypersensitivity to LVD in culture” value in experiment [7] ({}) was found to be 7 fold.
For `O=C(O)P(=O)(O)O` [PFA, phosphonoformic acid], the 50% effective concentration (EC50) in the experiment with HBV was around 5000 µM.
With `Nc1ncnc2c1ncn2CCOCP(=O)(O)O` [adefovir], the “susceptibility of ETVr HBV in cell culture” value in experiment [8] is recorded as “does not show reduced susceptibility”.
As to `Nc1nc2c(ncn2[C@H]2C[C@H](O)[C@@H](COP(=O)(O)OP(=O)(O)OP(=O)(O)O)O2)c(=O)[nH]1` [dGTP], the Michaelis constant (Km) turned out to be 2.3 ± 0.5 nM in experiment [1] (apparent Km, LVDr + M250V polymerase, read-out: dGTP Km); 2.1 ± 0.1 nM in [2] (apparent Km, LVDr + S202G polymerase, read-out: dGTP Km); 0.7 ± 0.1 nM in [3] (apparent Km, LVDr + T184G + S202I polymerase, read-out: dGTP Km); 1.9 ± 0.6 nM in [4] (apparent Km, LVDr + T184L polymerase, read-out: dGTP Km); 3.5 ± 0.4 nM in experiment [5] (apparent Km, LVDr M204V+L180M polymerase, read-out: dGTP Km); 5 ± 0.5 nM on Wildtype HBV polymerase (apparent Km, Wildtype (WT) polymerase, read-out: dGTP Km). Further, the “dGTP Km (Fold WT)” value was found to be 2.2 fold in [1] (setting [9]), 2.4 fold in [2] (setting [10]), 2.6 fold in experiment [4] (setting [12]) and 1 fold on Wildtype HBV polymerase (setting [14]). For the same molecule, the “change of dGTP Km by ETVr changes” value in [6] (ETVr enzymes except the quadruple-substituted RT) is 2.2- to 2.6 fold.
For `Nc1nc2c(ncn2[C@H]2CC[C@@H](COP(=O)(O)OP(=O)(O)OP(=O)(O)O)O2)c(=O)[nH]1` [ddGTP, 2′,3′-dideoxyguanosine-5′-triphosphate], the IC50 in experiment [1] (LVDr + M250V, read-out: ddGTP IC50, Average ± SD (Range)) amounted to 0.154 ± 0.0514 µM; in experiment [2] (LVDr + S202G, read-out: ddGTP IC50, Average ± SD (Range)), 0.125 ± 0.0088 µM; in [3] (LVDr + T184G + S202I, read-out: ddGTP IC50, Average ± SD (Range)), 0.188 ± 0.0067 µM; in experiment [5] (read-out: ddGTP IC50, Average ± SD (Range)), 0.138 ± 0.01 µM; at Wildtype HBV polymerase, 0.0876 µM. Besides, the “ddGTP IC50 of ETVr isolates relative to background” value in experiment [6] (ETVr isolates, in vitro polymerase) is listed as “approximately two-fold above background”.
On to `C[C@H](Cn1cnc2c(N)ncnc21)OCP(=O)(O)O` [tenofovir], for which the “susceptibility of ETVr HBV in cell culture” value in [8] is given as “does not show reduced susceptibility”.
